Columns and labels:
GLP = biological target: T1, GLP (Homo sapiens, UniProt Q9H9B1); experiment: Radioligand binding assay (3H-SAM), Reaction Biology; assay type: biochemical
T1 construct: purchased BPS Bioscience (contract panel)
T1 sequence (Q9H9B1 1-1298): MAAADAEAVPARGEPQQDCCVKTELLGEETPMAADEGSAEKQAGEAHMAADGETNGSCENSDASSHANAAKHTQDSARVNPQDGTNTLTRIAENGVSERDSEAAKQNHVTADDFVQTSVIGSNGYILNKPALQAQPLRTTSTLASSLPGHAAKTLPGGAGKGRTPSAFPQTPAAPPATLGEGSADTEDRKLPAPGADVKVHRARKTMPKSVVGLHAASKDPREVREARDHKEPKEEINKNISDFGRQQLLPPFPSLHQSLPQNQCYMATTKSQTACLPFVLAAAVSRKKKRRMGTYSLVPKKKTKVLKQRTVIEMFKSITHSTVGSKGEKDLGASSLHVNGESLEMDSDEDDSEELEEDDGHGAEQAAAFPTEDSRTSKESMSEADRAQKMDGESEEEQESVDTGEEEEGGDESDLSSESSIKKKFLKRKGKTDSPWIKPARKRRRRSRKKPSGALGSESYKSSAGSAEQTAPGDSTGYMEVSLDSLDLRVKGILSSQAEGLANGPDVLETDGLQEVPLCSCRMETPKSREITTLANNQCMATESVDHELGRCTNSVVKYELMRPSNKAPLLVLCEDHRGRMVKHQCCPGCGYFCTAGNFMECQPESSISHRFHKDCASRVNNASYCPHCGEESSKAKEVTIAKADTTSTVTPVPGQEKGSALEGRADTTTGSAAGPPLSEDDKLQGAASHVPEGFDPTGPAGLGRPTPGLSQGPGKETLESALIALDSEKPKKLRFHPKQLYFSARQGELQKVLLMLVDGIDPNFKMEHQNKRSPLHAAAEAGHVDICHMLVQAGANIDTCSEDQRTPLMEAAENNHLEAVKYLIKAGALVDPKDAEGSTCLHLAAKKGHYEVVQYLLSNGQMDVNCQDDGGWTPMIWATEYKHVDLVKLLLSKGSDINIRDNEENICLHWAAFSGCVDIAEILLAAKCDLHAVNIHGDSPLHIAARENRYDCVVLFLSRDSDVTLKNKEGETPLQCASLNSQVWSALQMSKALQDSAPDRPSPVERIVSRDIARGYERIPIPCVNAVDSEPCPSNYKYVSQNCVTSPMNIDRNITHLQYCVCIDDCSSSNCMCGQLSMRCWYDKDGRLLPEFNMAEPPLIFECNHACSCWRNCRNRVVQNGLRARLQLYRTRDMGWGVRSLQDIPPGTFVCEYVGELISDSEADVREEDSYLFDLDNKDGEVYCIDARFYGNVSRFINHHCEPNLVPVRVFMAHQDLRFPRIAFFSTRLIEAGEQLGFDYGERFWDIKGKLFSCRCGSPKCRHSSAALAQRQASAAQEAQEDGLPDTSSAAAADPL
Procedure: The radioligand binding assay against G9a, DNMT1 and GLP was performed by Reaction Biology Corporation (http://www.reactionbiology.com).

BRD4(BD1+BD2) = biological target: T2, BRD4(BD1+BD2) (Homo sapiens, UniProt O60885); experiment: Epigenetics selectivity panel (BPS Bioscience); assay type: binding
T2 construct: BRD2(BD1+BD2), BRD4(BD1+BD2), BRDT(BD1); purchased BPS Bioscience (contract panel)

TAF1 = biological target: T3, TAF1 (Homo sapiens, UniProt P21675); experiment: Epigenetics selectivity panel (BPS Bioscience); assay type: binding
T3 construct: purchased DiscoverX KINOMEscan (kinases); BPS Bioscience (epigenetic targets)
T3 sequence (P21675 whole entry): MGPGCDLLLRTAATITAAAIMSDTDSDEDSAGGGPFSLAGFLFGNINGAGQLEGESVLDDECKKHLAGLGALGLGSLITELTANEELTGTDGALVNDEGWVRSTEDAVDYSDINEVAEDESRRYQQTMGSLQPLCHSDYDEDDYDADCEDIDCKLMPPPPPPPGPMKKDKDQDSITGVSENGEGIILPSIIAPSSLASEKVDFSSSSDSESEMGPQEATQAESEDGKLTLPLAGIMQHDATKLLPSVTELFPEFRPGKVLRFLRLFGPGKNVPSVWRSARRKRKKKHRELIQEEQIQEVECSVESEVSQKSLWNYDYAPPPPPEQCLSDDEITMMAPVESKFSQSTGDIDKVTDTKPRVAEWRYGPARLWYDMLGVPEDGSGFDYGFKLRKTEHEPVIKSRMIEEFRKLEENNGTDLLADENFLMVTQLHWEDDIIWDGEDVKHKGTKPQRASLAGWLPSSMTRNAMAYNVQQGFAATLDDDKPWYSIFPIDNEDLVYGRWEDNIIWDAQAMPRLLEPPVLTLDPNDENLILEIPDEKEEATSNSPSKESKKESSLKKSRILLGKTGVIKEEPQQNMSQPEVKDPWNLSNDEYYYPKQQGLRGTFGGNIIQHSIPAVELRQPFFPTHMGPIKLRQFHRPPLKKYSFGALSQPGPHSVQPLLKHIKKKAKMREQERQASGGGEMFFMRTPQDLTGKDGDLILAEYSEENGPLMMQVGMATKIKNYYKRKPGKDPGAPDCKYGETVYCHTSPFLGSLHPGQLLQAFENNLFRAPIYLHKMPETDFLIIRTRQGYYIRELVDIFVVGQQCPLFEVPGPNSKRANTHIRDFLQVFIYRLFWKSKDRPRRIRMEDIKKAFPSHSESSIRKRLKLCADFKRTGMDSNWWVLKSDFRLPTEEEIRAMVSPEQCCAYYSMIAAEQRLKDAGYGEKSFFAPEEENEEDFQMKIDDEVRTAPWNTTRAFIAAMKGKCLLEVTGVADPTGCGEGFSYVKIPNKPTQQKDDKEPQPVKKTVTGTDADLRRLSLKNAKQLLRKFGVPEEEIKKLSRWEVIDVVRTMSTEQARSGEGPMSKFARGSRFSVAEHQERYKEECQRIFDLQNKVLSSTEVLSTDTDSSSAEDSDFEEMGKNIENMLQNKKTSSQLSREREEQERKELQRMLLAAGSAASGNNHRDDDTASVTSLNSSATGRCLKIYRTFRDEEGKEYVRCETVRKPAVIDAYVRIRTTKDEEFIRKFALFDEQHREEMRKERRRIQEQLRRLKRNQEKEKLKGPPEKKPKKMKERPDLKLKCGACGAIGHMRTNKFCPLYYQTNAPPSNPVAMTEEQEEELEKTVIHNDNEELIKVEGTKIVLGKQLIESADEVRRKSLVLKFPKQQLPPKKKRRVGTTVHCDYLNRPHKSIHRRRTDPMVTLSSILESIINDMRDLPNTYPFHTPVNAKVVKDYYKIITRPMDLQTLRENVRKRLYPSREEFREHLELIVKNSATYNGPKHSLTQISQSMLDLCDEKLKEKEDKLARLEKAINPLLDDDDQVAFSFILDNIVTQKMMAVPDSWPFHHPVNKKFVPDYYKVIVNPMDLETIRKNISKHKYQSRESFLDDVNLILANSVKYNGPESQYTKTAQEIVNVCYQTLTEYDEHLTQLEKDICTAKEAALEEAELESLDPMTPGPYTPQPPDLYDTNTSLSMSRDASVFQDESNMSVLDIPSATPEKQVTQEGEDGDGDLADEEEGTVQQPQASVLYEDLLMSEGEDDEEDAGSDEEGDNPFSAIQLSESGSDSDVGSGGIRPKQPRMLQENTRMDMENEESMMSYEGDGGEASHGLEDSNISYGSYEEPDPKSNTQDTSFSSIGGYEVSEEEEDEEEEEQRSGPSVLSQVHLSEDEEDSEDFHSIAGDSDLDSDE

JMJD2E = biological target: T4, JMJD2E (Homo sapiens, UniProt B2RXH2); experiment: Epigenetics selectivity panel (BPS Bioscience); assay type: biochemical
T4 construct: purchased DiscoverX KINOMEscan (kinases); BPS Bioscience (epigenetic targets)
T4 sequence (B2RXH2 whole entry): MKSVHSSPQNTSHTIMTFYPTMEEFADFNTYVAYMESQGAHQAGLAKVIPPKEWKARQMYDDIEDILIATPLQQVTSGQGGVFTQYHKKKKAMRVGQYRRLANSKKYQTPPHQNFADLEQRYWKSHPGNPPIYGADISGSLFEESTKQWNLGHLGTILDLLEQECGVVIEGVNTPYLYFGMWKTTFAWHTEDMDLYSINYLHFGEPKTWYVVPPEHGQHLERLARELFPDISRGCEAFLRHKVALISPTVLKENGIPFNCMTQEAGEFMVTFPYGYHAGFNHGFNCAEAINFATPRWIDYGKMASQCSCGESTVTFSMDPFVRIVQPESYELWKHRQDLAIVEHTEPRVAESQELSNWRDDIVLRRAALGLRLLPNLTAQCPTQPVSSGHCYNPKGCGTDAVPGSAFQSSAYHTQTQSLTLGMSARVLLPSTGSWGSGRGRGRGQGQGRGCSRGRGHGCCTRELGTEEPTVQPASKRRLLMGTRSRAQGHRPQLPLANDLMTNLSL

LAL-CUN-2 = experiment: Cell proliferation assay (MTS); assay type: cell-based; details: Homo sapiens; ALL, 48 h; read-out: GI50
NOMO-1 = experiment: Cell proliferation assay (MTS); assay type: cell-based; details: Homo sapiens, AML, 48 h
KMS28BM = experiment: Cell proliferation assay (MTS); assay type: cell-based; details: Homo sapiens, KMS-28BM; MM
MM1.S = experiment: Cell proliferation assay (MTS); assay type: cell-based; details: Homo sapiens
SK-MEL-147 = experiment: Cell proliferation assay (MTS); assay type: cell-based; details: Homo sapiens, Melanoma
UACC-62 = experiment: Cell proliferation assay (MTS); assay type: cell-based; details: Homo sapiens, Melanoma
SU8686 = experiment: Cell proliferation assay (MTS); assay type: cell-based; details: Homo sapiens, SU.86.86; Pancreas
A498 = experiment: Cell proliferation assay (MTS); assay type: cell-based; details: Homo sapiens, Renal
H460 = experiment: Cell proliferation assay (MTS); assay type: cell-based; details: Homo sapiens, NCI-H460; NSCLC

COc1cc2c(NC3CCN(C)CC3)cc(-c3ccc(C)o3)nc2cc1OCCCN1CCCC1 [CM-272, 6-methoxy-2-(5-methyl-2-furyl)-N-(1-methyl-4-piperidyl)-7-(3-pyrrolidin-1-ylpropoxy)quinolin-4-amine]
IC50 (GLP): 7 nM | inhibition at 10 µM (BRD4(BD1+BD2)): 56% | IC50 (BRD4(BD1+BD2); BPS): 1500 nM | inhibition at 10 µM (TAF1): 0% | inhibition at 10 µM (JMJD2E): 1% | GI50 (LAL-CUN-2): 664 nM | GI50 (NOMO-1): 3560 nM | GI50 (KMS28BM): 1630 nM | GI50 (MM1.S): 1080 nM | GI50 (SK-MEL-147): 422 nM | GI50 (UACC-62): 780 nM | GI50 (SU8686): 1400 nM | GI50 (A498): 4760 nM | GI50 (H460): 1480 nM

COc1cc2c(NCC3CCN(C)CC3)cc(-c3ccc(C)o3)nc2cc1OCCCN1CCCC1 [CM-579, 6-methoxy-2-(5-methyl-2-furyl)-N-[(1-methyl-4-piperidyl)methyl]-7-(3-pyrrolidin-1-ylpropoxy)quinolin-4-amine]
IC50 (GLP): 67 nM | inhibition at 10 µM (BRD4(BD1+BD2)): 0% | inhibition at 10 µM (TAF1): 4% | inhibition at 10 µM (JMJD2E): 8% | GI50 (LAL-CUN-2): 365 nM | GI50 (NOMO-1): > 10000 nM | GI50 (KMS28BM): 7820 nM | GI50 (MM1.S): 3790 nM | GI50 (SK-MEL-147): 32 nM | GI50 (UACC-62): 150 nM | GI50 (SU8686): 621 nM | GI50 (A498): 441 nM | GI50 (H460): 4110 nM

Source: article PMC5458547, “Discovery of first-in-class reversible dual small molecule inhibitors against G9a and DNMTs in hematological malignancies” (Nature Communications, 2017)
